Measured values published in US20170015555A1, “LONG-TERM PRESERVATION AND NOVEL APPLICATION OF CHLOROUS ACID AQUEOUS SOLUTION FORMULATION” (priority 2013, published 2017).

Test system: Microbes of the genus Salmonella: Salmonella Enteritidis IF03313
Type: cell-based
Conditions: stored at 25° C. Day 7; 1000 ppm available chlorine
From the text: 1) Chlorous acid aqueous solution formulation (see Example 1: Table 11) Treatment sheet (material: 100% cotton): (about 27×40 cm) *Impregnated at a ratio of weight of treatment sheet (g): amount of liquid (ml)=1:3 2) Imitation vomit Miso solution: adjusted to pH of 2 with hydrochloric acid 3) Test Microbes that were Used E. coli: Escherichia coli IF03927 Staphylococcus aureus: Staphylococcus aureus IF0 12732 Thermoduric Microbes (Bacillus cereus): Bacillus cereus NBRC15305 Microbes of the genus Salmonella: Salmonella Enteritidis IF03313 Enterohemorrhagic Escherichia coli O157: Escherichia coli O157 Enterohemorrhagic Escherichia coli O111: Escherichia coli O111 Enterohemorrhagic Escherichia coli O26: Escherichia coli O26
(1) Imitation vomit was spread in an area about the size of an A4 sheet. (2) 5 dry sheets were laid thereon. (3) An agent solution was poured on the dry sheets to wipe off the imitation vomit. (4) A cotton swab was soaked with sterile saline. A portion where imitation vomit was spread was scrubbed with the cotton swab to collect microbes remaining on the floor. After suspending in saline, the solution was spread on a petri dish and cultured. The number of each of the microbes was measured. (5) Test operations 3 and 4 were repeated a total of 7 times (repeated until the imitation vomit could be removed completely).

[Na] [Sodium]
<10: Number of Times Wiped 1 Time (remaining microbes) | Number of Times Wiped 2 Times (remaining microbes) | Number of Times Wiped 3 Times (remaining microbes)
